In US7524864B2, “Methods of treating sleep disorders” (Hypnion, Inc., priority 2004, dated 2009):
Read-outs that look alike come from different tables or passages of the source.

How the values were obtained:
[1] = target: T1, human recombinant M1 expressed in CHO cells (Homo sapiens, UniProt P11229); details: reference compounds; read-out: Ki of reference compounds in M1 binding assay; cited from earlier work
T1 construct: purchased PerkinElmer, Inc., Wellesley, Mass; host or cells: CHO cells
T1 sequence (P11229 1-460): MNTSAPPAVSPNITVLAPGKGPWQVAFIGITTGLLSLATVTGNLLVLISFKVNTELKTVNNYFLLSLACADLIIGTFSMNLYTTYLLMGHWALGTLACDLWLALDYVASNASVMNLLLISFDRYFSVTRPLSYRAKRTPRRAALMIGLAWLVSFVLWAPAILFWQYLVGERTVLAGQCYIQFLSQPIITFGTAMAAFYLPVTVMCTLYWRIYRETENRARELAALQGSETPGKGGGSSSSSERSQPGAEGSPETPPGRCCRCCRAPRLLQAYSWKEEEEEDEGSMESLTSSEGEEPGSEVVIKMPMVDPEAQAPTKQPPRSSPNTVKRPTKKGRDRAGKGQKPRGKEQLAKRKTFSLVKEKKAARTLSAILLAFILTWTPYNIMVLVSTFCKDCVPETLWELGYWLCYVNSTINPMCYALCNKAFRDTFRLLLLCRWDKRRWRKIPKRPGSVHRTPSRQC

[2] = target: T1, human recombinant M1 expressed in CHO cells; experiment: M1 muscarinic receptor binding assay ([3H]-scopolamine, N-methyl chloride displacement); details: Table 5; read-out: M1 inhibition constant Ki
[3] = target: T2, human recombinant M2 expressed in CHO cells (Homo sapiens, UniProt P08172); experiment: M2 muscarinic receptor binding assay ([3H]-scopolamine, N-methyl chloride displacement); details: Table 5; read-out: M2 inhibition constant Ki
T2 construct: purchased PerkinElmer, Inc., Wellesley, Mass; host or cells: CHO cells
T2 sequence (P08172 1-466): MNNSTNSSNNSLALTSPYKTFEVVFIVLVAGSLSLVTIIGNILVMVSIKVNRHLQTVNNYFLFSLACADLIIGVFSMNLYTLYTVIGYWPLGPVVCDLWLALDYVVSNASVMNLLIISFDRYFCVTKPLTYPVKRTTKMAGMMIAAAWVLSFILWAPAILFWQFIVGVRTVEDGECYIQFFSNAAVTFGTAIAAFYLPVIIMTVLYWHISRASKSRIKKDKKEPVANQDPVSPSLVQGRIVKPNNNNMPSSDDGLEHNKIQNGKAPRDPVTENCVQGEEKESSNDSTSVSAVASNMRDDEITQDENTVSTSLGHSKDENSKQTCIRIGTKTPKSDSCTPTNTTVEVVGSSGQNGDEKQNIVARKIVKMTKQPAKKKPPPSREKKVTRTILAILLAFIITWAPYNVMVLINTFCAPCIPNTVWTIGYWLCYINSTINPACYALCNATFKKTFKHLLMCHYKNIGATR

[4] = system: sleep (NREM, LUSB) in male Wistar rats; experiment: Sleep-wakefulness monitoring (SCORE-2000, EEG/EMG) in male Wistar rats; type: in vivo, rat; details: oral, CT-18
Method: Sleep-wakefulness, locomotor activity and body temperature are monitored in male Wistar rats treated with a test compound (i.e., doxepin analog) initially at a concentration of 10 mg/kg. Higher and lower doses are assayed for select compounds (e.g., as high as 45 mg/kg, and as low as necessary to establish a no-effect dose). Treatments are administered at CT-18, the peak of the activity dominated period (6 hours after lights-off), and produced soporific (sleep-inducing) effects characterized by increased non-REM sleep time, increased sleep continuity, but without evidence of REM sleep inhibition or rebound insomnia.
Sleep-wakefulness, locomotor activity and body temperature are monitored in vivo with the disclosed sleep-inducing agents. Adult, male Wistar rats (250 g at time of surgery, Charles River Laboratories, Wilmington Mass.) were anesthetized (2% isoflourane in medical grade oxygen) and surgically prepared with a cranial implant to permit chronic electro-encephalogram (EEG) and electromyogram (EMG) recording. Body temperature and locomotor activity were monitored via a miniature transmitter (Mini-Mitter, Bend, Oreg.) surgically placed in the abdomen. The cranial implant consisted of stainless steel screws (two frontal [+3.2 AP from bregma, ±2.0 ML] and two occipital [−6.9 AP, ±5.5 ML]) for EEG recording. Two Teflon®-coated stainless steel wires were positioned under the nuchal trapezoid muscles for EMG recording. All leads were soldered to a miniature connector prior to surgery, and gas sterilized in ethylene oxide. The implant assembly was affixed to the skull with dental acrylic. A minimum of three weeks was allowed for surgical recovery.
Each rat is permanently housed in its own individual recording cage located within separate, ventilated compartments of custom-designed stainless steel cabinets. Each cage is enhanced with a filter-top riser and low-torque swivel-commutator. Food and water are available ad libitum. A 24-hr light-dark cycle (12 hours light, 12 hours dark) is maintained throughout the study. Animals are undisturbed for at least 48 hours before and after treatments.
Sleep and wakefulness is determined using “SCORE-2000™”(Hypnion, Worcester, Mass.)—an internet-based sleep-wake and physiological monitoring system. The system monitored amplified EEG (bandpass 1-30 Hz), integrated EMG (bandpass 10-100 Hz), body temperature and non-specific locomotor activity (LMA) via telemetry, and drinking activity, continuously and simultaneously. Arousal states are classified on-line as non-REM (NREM) sleep, REM sleep, wake, or theta-dominated wake every 10 seconds. Total drinking and locomotor activity counts, and body temperature were quantitiated and recorded each minute, using EEG feature extraction and pattern-matching algorithms. […] The classification algorithm used individually-taught EEG-arousal-state templates, plus EMG criteria to differentiate REM sleep from theta-dominated wakefulness, plus behavior-dependent contextual rules (e.g., if the animal was drinking, it is awake). Drinking and locomotor activity intensity (LMA) are recorded as discrete events every 10 seconds, while body temperature was recorded each minute. Locomotor activity was detected by a telemetry receiver (Mini-Mitter) beneath the cage. Telemetry measures (LMA and body temperature) are not part of the scoring algorithm; thus, sleep-scoring and telemetry data were independent measures.
Compounds are administered at CT-18, the peak of the activity-dominated period, in order to ensure prior wakefulness is sufficient to interact positively with hypnotic-drug effects, and sufficient time is allowed to view the time course of the treatment effect before lights-on (6 hours post-treatment). Compounds are suspended in sterile 0.25% or 0.5% methylcellulose (1-2 ml/kg). Treatments are administered orally as a bolus.
A parallel group study design is employed. […]

H1 receptor = target: T3, H1 receptor (Bos taurus, UniProt P30546); experiment: H1 histamine receptor competitive binding assay ([3H]pyrilamine displacement); set-up: species or system bovine
T3 construct: the receptors are obtained from bovine cerebellar membrane tissue; from tissue; host or cells: bovine cerebellar membranes

[5] = target: T4, human recombinant M3 expressed in CHO cells (Homo sapiens, UniProt P20309); experiment: M3 muscarinic receptor binding assay ([3H]-scopolamine, N-methyl chloride displacement); details: Table 5; read-out: M3 inhibition constant Ki
T4 construct: purchased PerkinElmer, Inc., Wellesley, Mass; host or cells: CHO cells
T4 sequence (P20309 whole entry): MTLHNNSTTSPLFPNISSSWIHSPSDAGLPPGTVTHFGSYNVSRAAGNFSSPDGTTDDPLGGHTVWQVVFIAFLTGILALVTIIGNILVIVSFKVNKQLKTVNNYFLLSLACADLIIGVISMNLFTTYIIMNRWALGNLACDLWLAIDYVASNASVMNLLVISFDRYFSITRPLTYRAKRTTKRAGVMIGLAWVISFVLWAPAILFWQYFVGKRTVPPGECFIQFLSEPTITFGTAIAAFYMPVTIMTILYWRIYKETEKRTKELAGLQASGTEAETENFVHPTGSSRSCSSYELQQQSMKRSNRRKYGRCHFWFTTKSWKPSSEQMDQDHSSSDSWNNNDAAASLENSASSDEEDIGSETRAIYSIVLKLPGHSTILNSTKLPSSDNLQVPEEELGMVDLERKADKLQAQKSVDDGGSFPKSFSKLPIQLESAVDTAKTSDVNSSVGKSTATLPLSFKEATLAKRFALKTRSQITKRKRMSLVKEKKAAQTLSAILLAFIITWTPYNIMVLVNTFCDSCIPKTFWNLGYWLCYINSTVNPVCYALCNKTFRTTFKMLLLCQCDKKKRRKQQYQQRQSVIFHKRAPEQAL

T3 sequence (P30546 whole entry): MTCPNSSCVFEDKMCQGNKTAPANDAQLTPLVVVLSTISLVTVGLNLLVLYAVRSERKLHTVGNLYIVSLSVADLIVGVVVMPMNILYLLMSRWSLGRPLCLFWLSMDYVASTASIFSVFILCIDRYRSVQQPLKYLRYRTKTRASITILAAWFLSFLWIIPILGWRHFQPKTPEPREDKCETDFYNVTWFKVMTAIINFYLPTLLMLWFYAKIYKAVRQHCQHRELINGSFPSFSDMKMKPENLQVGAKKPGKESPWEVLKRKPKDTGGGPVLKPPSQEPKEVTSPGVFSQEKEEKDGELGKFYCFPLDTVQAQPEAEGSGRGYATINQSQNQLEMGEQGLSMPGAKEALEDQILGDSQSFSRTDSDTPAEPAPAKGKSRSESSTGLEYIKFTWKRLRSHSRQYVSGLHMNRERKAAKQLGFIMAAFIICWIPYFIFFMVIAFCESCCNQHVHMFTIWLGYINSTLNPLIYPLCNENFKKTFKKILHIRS

Ki [2] [nM]	Ki [3] [nM]	Ki (H1 receptor; bovine H1, Table 5, read-out: H1 (bovine) inhibition constant Ki) [nM]	Ki [5] [nM]	SMILES	Ki [1] [nM]	LUSB (longest uninterrupted sleep bout) ([4]; 3 mg/kg) [min]	LUSB (longest uninterrupted sleep bout) ([4]; 10 mg/kg) [min]	NREM ([4]; 10 mg/kg) [min]	LUSB (longest uninterrupted sleep bout) ([4]; 30 mg/kg) [min]	NREM ([4]; 30 mg/kg) [min]	LUSB (longest uninterrupted sleep bout) ([4]; 56 mg/kg) [min]	NREM ([4]; 56 mg/kg) [min]	LUSB (longest uninterrupted sleep bout) ([4]; 100 mg/kg) [min]	NREM ([4]; 100 mg/kg) [min]	specificity for H1 over the muscarinic receptors (H1 receptor; H1 versus M1, M2, M3 Ki)
				C[N+]1(C)CCC(OC(=O)C(c2ccccc2)c2ccccc2)CC1 [4-DAMP methiodide]	0.27										
> 10000	> 10000	50.6	> 10000	CC(C)(CN1CCC(=C2c3ccc(F)cc3CSc3ccccc32)CC1)C(=O)O.Cl [Compound 8]		4.7 ± 3.2	6.3 ± 1.7	20 ± 5	10.9 ± 2.3	41 ± 9	9.3 ± 2.2	57 ± 7	13.2 ± 2.8	52 ± 8	specific for H1 over the muscarinic receptors
